According to PMC3386958, “High-throughput Screening and Sensitized Bacteria Identify an M. tuberculosis Dihydrofolate Reductase Inhibitor with Whole Cell Activity” (PLoS ONE, 2012):

Target: T1, Mtb dihydrofolate reductase (DHFR) (Mycobacterium tuberculosis, UniProt P9WNX1)
T1 construct: gene folA; recombinant, 6-histidine tag at the amino terminus
T1 sequence (P9WNX1 1-161): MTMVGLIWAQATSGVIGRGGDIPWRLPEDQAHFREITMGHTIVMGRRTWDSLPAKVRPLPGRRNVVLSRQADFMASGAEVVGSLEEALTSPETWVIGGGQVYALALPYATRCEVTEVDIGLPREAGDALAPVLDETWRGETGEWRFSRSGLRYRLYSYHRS
Assay type: biochemical

Nc1nc(N)c2cc(C(F)(F)F)ccc2n1 [NC00094221]
IC50: 22.4 nM
